“Also recorded” adds a separate entry of the source.

Assay [1] relates to bladder cancer cell line RT 112. Kind of assay: Lactate transport (export): enzymatic determination of lactate in supernatants at 340 nm. The class given is cell-based, human. The conditions noted are these: RT 112, 0.2 mM albumin, pH 6.5 to 7.4, FIG. 1a/b. As for the experimental part: The human bladder tumor cell line RT112 or the human chronic myeloid leukemia cell line K562 were purchased from DKFZ Tumorzell- und datenbank (Institut für experimentelle Pathologie, Heidelberg, FRG) or DSM (Deutsche Sammlung von Mikroorganismen und Zellkulturen GmbH, Braunschweig, FRG) supplemented with 2 mM L-glutamine (BIOCHROM, Berlin, FRG), 1% NEAE (BIOCHROM), 10% heat-inactivated fetal calf serum (BIOCHROM), 100 U/ml penicillin and 50 μg/ml Streptomycin (BIOCHROM) at 37 oc and 5% co2. Only mycoplasma-free cell cultures were used; this was frequently tested using a specific detection kit (BOEHRINGER MANNHEIM, Mannheim, FRG). Qualitative, Enzymatic Determination of Lactate in Supernatants of RT112 Cells at 340 nm RT112 cells were harvested, washed twice and re-suspended in culture media to yield a density of 2×10^5/ml. 500 μl/well of the RT112 cell suspension were seeded into 24 well microtiter plates (BD) and incubated over night at 37° C. and 5% C˜. The Supernatant was replaced by 450 pl pH-adjusted culture medium (pH 6.0-7.4) and 50 111 of the solution of preferred substances or 500 111/well pH-adjusted culture medium alone (control). Again, the cells were incubated for 24 hat 37° C. and 5% CO2. The measurement of lactate in the supernatants at 340 nm (PERKIN-ELMER, Lambda 17. UV-VIS Spectrophotometer, Überlingen, FRG) was performed according to the manufacturer's instructions (SIGMA DIAGNOSTICS, Deisenhofen, FRG; Lactate: Quantitative, Enzymatic Determination of Lactate in Whole Blood at 340 nm (Procedure No. 826-UV)).

In assay [2] the test system is RT 112 cancer cells. Kind of assay: Proliferation, [3H]-TdR (3H-thymidine) incorporation assay. It is filed as cell-based, human. The conditions noted are these: FIG. 2a. As to the method:
The human bladder tumor cell line RT112 or the human chronic myeloid leukemia cell line K562 were purchased from DKFZ Tumorzell- und datenbank (Institut für experimentelle Pathologie, Heidelberg, FRG) or DSM (Deutsche Sammlung von Mikroorganismen und Zellkulturen GmbH, Braunschweig, FRG) supplemented with 2 mM L-glutamine (BIOCHROM, Berlin, FRG), 1% NEAE (BIOCHROM), 10% heat-inactivated fetal calf serum (BIOCHROM), 100 U/ml penicillin and 50 μg/ml Streptomycin (BIOCHROM) at 37 oc and 5% co2. Only mycoplasma-free cell cultures were used; this was frequently tested using a specific detection kit (BOEHRINGER MANNHEIM, Mannheim, FRG). The influence of cytotoxic molecules on the proliferation of RT112 tumor cells was quantified by the measurement of the incorporated tritiated thymidine ([^3H]-TdR) into the cellular DNA of the tumor cells by liquid scintillation counting (LSC). In brief, RT112 cells are harvested, washed twice and re-suspended in culture media (2.5×10^5 /ml). 100 μl/well of the RT112 cell suspension were seeded into 96 well microtiter plates (BECTON DICKINSON) and incubated over night at 37 ° C. and 5% CO2. The supernatant was replaced by 90 μl pH-adjusted culture medium (pH 6.0-7.4) and 10 μl of the solution of preferred substances or 10 μl/well pH-adjusted culture medium alone (control). The cells were incubated for various time periods at 37° C. and 5% CO2. Thereafter, cells were washed twice and re-incubated in fresh pH-adjusted culture medium. And pulsed for 24 h by the addition of 23.125 kBq [^3]-TdR/well (925 kBq/ml, AMERSHAM, Braunschweig, FRG). After freezing and thawing, radioactive DNA of the cultures were transferred to glass fiber filters with an automatic cell harvester (PHARMACIA). The incorporated radioactivity was measured in a liquid scintillation counter (PHARMACIA).

The test system of assay [3] is cancer cells. As to the kind of experiment: Patient tests with high ASA doses. The class given is in vivo, human. As to conditions: high ASA doses of 90-120 mg/kg bodyweight. As for the experimental part: But in the course of tests it became apparent how to artificially activate the immune system to be conditioned for killing cancer cells in basic environment. The “protection factor” also can be eliminated by the administration of high ASA doses of between 90-120 mg/kg bodyweight of the patient. […] The administered doses that provide this effect are between 90-120 mg/kg bodyweight of the patient of ASA.

On to `O=C(O)c1cc(-c2ccc(F)cc2F)ccc1O` [Diflunisal, 5-[2,4-difluorophenyl]-salicylic acid], for which the “lactate efflux (export) compared to the Control” value in assay [1] is “produce stimulation of lactate export all over the pH range; also recorded: accelerate the lactate efflux all over the pH range from pH 6.5 to 7.4”. The “proliferation (3H-thymidine incorporation) vs control” value in assay [2] (above pH 7.1, 0.2 mM albumin) was “produces enhancement”; in assay [2] (up to pH 7.1, 0.2 mM albumin), “inhibits proliferation slightly”.
As for `CC(=O)Oc1ccccc1C(=O)O` [ASA, acetylsalicylic acid], in assay [1], the “lactate efflux (export) compared to the Control” value is recorded as “produce stimulation of lactate export all over the pH range; also recorded: accelerate the lactate efflux all over the pH range from pH 6.5 to 7.4”. Further, the “proliferation (3H-thymidine incorporation) vs control” value in assay [2] (ASA at 1 mM and 2 mM, pH 6.5-7.4, 0.2 mM albumin) is on record as “appreciable enhancement of proliferation”. Further, in assay [3], the “"protection factor" of cancer cells against immune attack” value is recorded as “eliminated” and the “proliferation of cancer cells” value is given as “proliferation was stopped”.
With `Nc1ccc(C(=O)O)c(O)c1` [PAS, 4-aminosalicylic acid], the “lactate efflux (export) compared to the Control” value in assay [1] is “accelerate the lactate efflux all over the pH range from pH 6.5 to 7.4”.

The values are drawn from patent US20160287613A1, “SALICYLATES FOR USE IN THE TREATMENT OF CANCER” (priority 2013, published 2016).
